# Experimental data published in patent US9498483B2, “2,3,5-trisubstituted thiophene compounds and uses thereof” (priority 2010, dated 2016).
# pIC50: −log10 of the molar value.
# Experiments:
# HCV polymerase = target: T1, HCV polymerase (Hepatitis C virus genotype 1b, UniProt Q9WMX2); experiment: Polymerase assay of Biological Example 1 (IC50 values of Table 3); format: biochemical; details: IC50 values of Table 3, polymerase assay of Biological Example 1; read-out: NS5B-enzyme3
# T1 construct: (His)6 (C); made in house; host or cells: XL-1 cells (E. coli, by own knowledge)
# [1] = system: HCV replicon I389luc-ubi-neo/NS3-3′/ET in ET (Huh-lucubineo-ET) cells; experiment: Replicon assay (Biological Example 2), luciferase readout; format: cell-based; details: Hepatitis C virus
# Outline: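 EC50 values come from Hill fits of % inhibition of replicon-driven firefly luciferase, relative to no-compound wells. Compounds were serially diluted (10 points, 3-fold, 0.1 nM–50 μM final, 0.5% DMSO) onto ET replicon cells and read after 48 h.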
# [2] = ET cells, luciferase activity 48 hours after compound
SMILES,pIC50 (HCV polymerase),pIC50 ([1]; between 100 nM and 5.0 uM),"pIC50 [1, 2]"
"O=C(O)c1sc(-c2ccccc2)cc1N1C(=O)CN(S(=O)(=O)Cc2ccccc2)CC1C1CCCCC1 (stereo not drawn) [Compound 27, 3-(2-Cyclohexyl-6-oxo-4-phenylmethanesulfonyl-piperazin-1-yl)-5-phenyl-thiophene-2-carboxylic acid]",7.66,5.30 to 7.00,–
"CC(C)(C)C#Cc1cc(N2C(=O)C(CCO)CC[C@H]2C2CCCCC2)c(C(=O)O)s1 (single isomer, unassigned) [Compound 343]",9.00,–,≥ 7.00
"CC(C)(C)C#Cc1cc(N2C(=O)COC[C@H]2C2CCCCC2)c(C(=O)NS(C)(=O)=O)s1 [Compound 309, N-[3-((R)-3-Cyclohexyl-5-oxo-morpholin-4-yl)-5-(3,3-dimethyl-but-1-ynyl)-thiophene-2-carbonyl]-methanesulfonamide]",7.27,5.30 to 7.00,–
"CC(C)(C)OC(=O)N1CCN(c2ccc(S(=O)(=O)N3CC(=O)N(c4cc(-c5ccccc5)sc4C(=O)O)[C@H](C4CCCCC4)C3)cn2)C[C@@H]1CO [Compound 161, (R)-4-{5-[(R)-4-(2-Carboxy-5-phenyl-thiophen-3-yl)-3-cyclohexyl-5-oxo-piperazine-1-sulfonyl]-pyridin-2-yl}-2-hydroxymethyl-piperazine-1-carboxylic acid tert-butyl ester]",9.00,–,≥ 7.00
"O=C(O)c1sc(-c2ccc(Cl)cc2)cc1N1C(=O)CCCC1C1CCCCC1 (stereo not drawn) [Compound 73, 5-(4-Chloro-phenyl)-3-(2-cyclohexyl-6-oxo-piperidin-1-yl)-thiophene-2-carboxylic acid]",7.68,5.30 to 7.00,–
"Cn1nccc1S(=O)(=O)N1CC(=O)N(c2cc(C#CC(C)(C)C)sc2C(=O)O)[C@H](C2CCCCC2)C1 [Compound 254, 3-[(R)-2-Cyclohexyl-4-(2-methyl-2H-pyrazole-3-sulfonyl)-6-oxo-piperazin-1-yl]-5-(3,3-dimethyl-but-1-ynyl)-thiophene-2-carboxylic acid]",7.82,5.30 to 7.00,–
"O=C(O)c1sc(-c2ccccc2)cc1N1C(=O)CN(S(=O)(=O)c2ccc(N3CC4CC3CO4)nc2)C[C@H]1C1CCCCC1 (stereo partly drawn) [Compound 217, 3-{(R)-2-Cyclohexyl-4-[6-(2-oxa-5-aza-bicyclo[2.2.1]hept-5-yl)-pyridine-3-sulfonyl]-6-oxo-piperazin-1-yl}-5-phenyl-thiophene-2-carboxylic acid]",9.00,–,≥ 7.00
"C[C@@H]1C[C@@H](O)CN1c1ccc(S(=O)(=O)N2CC(=O)N(c3cc(-c4ccccc4)sc3C(=O)O)C(C3CCCCC3)C2)cn1 (stereo partly drawn) [Compound 122, 3-{2-Cyclohexyl-4-[6-((2R,4R)-4-hydroxy-2-methyl-pyrrolidin-1-yl)-pyridine-3-sulfonyl]-6-oxo-piperazin-1-yl}-5-phenyl-thiophene-2-carboxylic acid]",8.70,–,≥ 7.00
"O=C(O)c1sc(-c2ccccc2)cc1N1C(=O)CN(Cc2ccc(Cl)nc2)C[C@H]1C1CCCCC1 [Compound 267, 3-[(R)-4-(6-Chloro-pyridin-3-ylmethyl)-2-cyclohexyl-6-oxo-piperazin-1-yl]-5-phenyl-thiophene-2-carboxylic acid]",7.19,5.30 to 7.00,–
"N[C@H]1CCN(c2ccc(S(=O)(=O)N3CC(=O)N(c4cc(-c5ccccc5)sc4C(=O)O)[C@H](C4CCCCC4)C3)cn2)C1 [Compound 144, 3-{(R)-4-[6-((S)-3-Amino-pyrrolidin-1-yl)-pyridine-3-sulfonyl]-2-cyclohexyl-6-oxo-piperazin-1-yl}-5-phenyl-thiophene-2-carboxylic acid]",8.70,5.30 to 7.00,–
"CC(C)(C)C#Cc1cc(N2C(=O)[C@](C)(CC(O)CO)OC[C@H]2C2CCCCC2)c(C(=O)O)s1 (stereo partly drawn) [Compound 327, 3-[(2S,5R)-5-Cyclohexyl-2-(2,3-dihydroxy-propyl)-2-methyl-3-oxo-morpholin-4-yl]-5-(3,3-dimethyl-but-1-ynyl)-thiophene-2-carboxylic acid]",8.40,–,≥ 7.00
"O=C(O)c1sc(-c2ccccc2)cc1N1C(=O)CCCC1C1CCCCC1 (stereo not drawn) [Compound 4, 3-(2-Cyclohexyl-6-oxo-piperidin-1-yl)-5-phenyl-thiophene-2-carboxylic acid]",7.14,5.30 to 7.00,–
"O=C(O)c1sc(-c2ccccc2)cc1N1C(=O)CN(S(=O)(=O)c2ccc(N3CC[C@H](O)C3)nc2)CC1C1CCCCC1 (stereo partly drawn) [Compound 124, 3-{2-Cyclohexyl-4-[6-((S)-3-hydroxy-pyrrolidin-1-yl)-pyridine-3-sulfonyl]-6-oxo-piperazin-1-yl}-5-phenyl-thiophene-2-carboxylic acid]",8.40,5.30 to 7.00,–
"O=C(O)c1sc(-c2ccc(Cl)cc2)cc1N1C(=O)CN(S(=O)(=O)c2ccc(N3CC4CCC(C3)O4)nc2)C[C@H]1C1CCCCC1 [Compound 227, 5-(4-Chloro-phenyl)-3-{(R)-2-cyclohexyl-4-[6-(8-oxa-3-aza-bicyclo[3.2.1]oct-3-yl)-pyridine-3-sulfonyl]-6-oxo-piperazin-1-yl}-thiophene-2-carboxylic acid]",9.00,–,≥ 7.00
"COc1ccccc1S(=O)(=O)N1CC(=O)N(c2cc(C#CC(C)(C)C)sc2C(=O)O)[C@H](C2CCCCC2)C1 [Compound 258, 3-[(R)-2-Cyclohexyl-4-(2-methoxy-benzenesulfonyl)-6-oxo-piperazin-1-yl]-5-(3,3-dimethyl-but-1-ynyl)-thiophene-2-carboxylic acid]",8.15,–,≥ 7.00
"CC(C)(C)C#Cc1cc(N2C(=O)[C@@](C)(CCC(C)(C)O)OC[C@H]2C2CCCCC2)c(C(=O)O)s1 [Compound 319, 3-[(2R,5R)-5-Cyclohexyl-2-(3-hydroxy-3-methyl-butyl)-2-methyl-3-oxo-morpholin-4-yl]-5-(3,3-dimethyl-but-1-ynyl)-thiophene-2-carboxylic acid]",8.40,–,≥ 7.00
"CC1CCC(C)N1c1ccc(S(=O)(=O)N2CC(=O)N(c3cc(-c4ccccc4)sc3C(=O)O)C(C3CCCCC3)C2)cn1 (stereo not drawn) [Compound 92, 3-{2-Cyclohexyl-4-[6-(2,5-dimethyl-pyrrolidin-1-yl)-pyridine-3-sulfonyl]-6-oxo-piperazin-1-yl}-5-phenyl-thiophene-2-carboxylic acid]",8.40,–,≥ 7.00
"CC(C)(C)C#Cc1cc(N2C(=O)CN(S(=O)(=O)c3c(Cl)cccc3Cl)C[C@H]2C2CCCCC2)c(C(=O)O)s1 [Compound 282, 3-[(R)-2-Cyclohexyl-4-(2,6-dichloro-benzenesulfonyl)-6-oxo-piperazin-1-yl]-5-(3,3-dimethyl-but-1-ynyl)-thiophene-2-carboxylic acid]",7.51,5.30 to 7.00,–
"CC(C)(C)c1ccc(-c2cc(N3C(=O)CCCC3C3CCCCC3)c(C(=O)O)s2)cc1 (stereo not drawn) [Compound 113, 5-(4-tert-Butyl-phenyl)-3-(2-cyclohexyl-6-oxo-piperidin-1-yl)-thiophene-2-carboxylic acid]",7.36,5.30 to 7.00,–
"C[C@H]1[C@@H](C2CCCCC2)N(c2cc(C#CC(C)(C)C)sc2C(=O)O)C(=O)N1C [Compound 237, 3-((4S,5R)-5-Cyclohexyl-3,4-dimethyl-2-oxo-imidazolidin-1-yl)-5-(3,3-dimethyl-but-1-ynyl)-thiophene-2-carboxylic acid]",7.38,5.30 to 7.00,–
"CC(C)c1ccc(S(=O)(=O)N2CC(=O)N(c3cc(C#CC(C)(C)C)sc3C(=O)O)[C@H](C3CCCCC3)C2)cc1 [Compound 176, 3-[(R)-2-Cyclohexyl-4-(4-isopropyl-benzenesulfonyl)-6-oxo-piperazin-1-yl]-5-(3,3-dimethyl-but-1-ynyl)-thiophene-2-carboxylic acid]",5.85,–,≥ 7.00
"O=C(O)c1sc(-c2ccccc2)cc1N1C(=O)CN(S(=O)(=O)c2ccccc2F)CC1C1CCCCC1 (stereo not drawn) [Compound 40, 3-[2-Cyclohexyl-4-(2-fluoro-benzenesulfonyl)-6-oxo-piperazin-1-yl]-5-phenyl-thiophene-2-carboxylic acid]",7.89,5.30 to 7.00,–
"C[C@H]1CN(c2ccc(S(=O)(=O)N3CC(=O)N(c4cc(-c5ccccc5)sc4C(=O)O)[C@H](C4CCCCC4)C3)cn2)CCN1 [Compound 145, 3-{(R)-2-Cyclohexyl-4-[6-((S)-3-methyl-piperazin-1-yl)-pyridine-3-sulfonyl]-6-oxo-piperazin-1-yl}-5-phenyl-thiophene-2-carboxylic acid]",9.00,–,≥ 7.00
"Cc1ccc(-c2cc(N3C(=O)CN(S(=O)(=O)c4cnc(C)c(C)c4)C[C@H]3C3CCCCC3)c(C(=O)O)s2)cc1 [Compound 305, 3-[(R)-2-Cyclohexyl-4-(5,6-dimethyl-pyridine-3-sulfonyl)-6-oxo-piperazin-1-yl]-5-p-tolyl-thiophene-2-carboxylic acid]",8.40,–,≥ 7.00
"O=C(Cc1ccccc1)NC1CC(=O)N(c2cc(-c3ccccc3)sc2C(=O)O)C(C2CCCCC2)C1 (stereo not drawn) [Compound 20, 3-(2-Cyclohexyl-6-oxo-4-phenylacetylamino-piperidin-1-yl)-5-phenyl-thiophene-2-carboxylic acid]",6.89,–,≤ 5.30
"O=C(O)c1sc(-c2ccccc2)cc1N1C(=O)CN(S(=O)(=O)c2ccc(OC(F)F)cc2)CC1C1CCCCC1 (stereo not drawn) [Compound 106, 3-[2-Cyclohexyl-4-(4-difluoromethoxy-benzenesulfonyl)-6-oxo-piperazin-1-yl]-5-phenyl-thiophene-2-carboxylic acid]",7.85,5.30 to 7.00,–
"CC(C)CS(=O)(=O)N1CC(=O)N(c2cc(-c3ccccc3)sc2C(=O)O)C(C2CCCCC2)C1 (stereo not drawn) [Compound 38, 3-[2-Cyclohexyl-4-(2-methyl-propane-1-sulfonyl)-6-oxo-piperazin-1-yl]-5-phenyl-thiophene-2-carboxylic acid]",7.19,5.30 to 7.00,–
